According to patent US20170088520A1, “DEUBIQUITINASE INHIBITORS” (PharmAkea, Inc., priority 2014, published 2017):

Key:
Format in all cases: cell-based
[1] = target: T1, DUB activity in cells (NCI-H929, Z138, MM.1S, A375) (Homo sapiens, UniProt Q93008); assay: HA-Ubiquitin-Vinylsulfone (HA-Ub-VS) cell labeling assay; details: compound tested at 5 μM; HA-Ub-VS labeling of USP9x in cells
T1 construct: endogenous in cells; host or cells: NCI-H929, Z138, MM.1S, A375
Experimental: Example B-1: HA-Ubiqutin-Vinylsulfone (HA-Ub-VS) Cell Labeling
Inhibitition of DUB activity is measured in cells (NCI-H929, Z138, MM.1S, A375) using a hemaglutinin-ubiquitin-vinylsulfone (HA-Ub-VS) labeling assay. Briefly, 1-2×10^6 cells are plated in 12-well plates in 1 ml complete growth media and 250 μl of test compound in 0.5% dimethylsulfoxide (or DMSO control) is added to each well. Plates are incubated at 37° C., 5% CO2 for 2-6 hours before cells are harvested into eppendorf tubes, washed once in PBS and resuspended in 100 μl cold lysis buffer (50 mM Tris pH 8, 150 mM NaCl, 0.5% NP-40, 2 mM phenylmethylsulfonyl fluoride and complete protease inhibitor tablet). Resupended cells are frozen on dry ice, then thawed and incubated on ice for 15 minutes. Tubes are centrifuged for 10 minutes at 14,000 rpm at 4° C. and the cleared supernatants transferred to clean tubes. […] The samples are incubated 15-60 min at 37° C. before the addition of SDS gel loading buffer. Proteins are separated by SDS-PAGE, transferred to nitrocellulose and the blot probed with anti-HA antibody and anti-β-actin antibodies. The HA and β-actin antibodies are detected using secondary antibodies coupled to IRdye 800 or IRdye 680 and visualized and quantitated using the LiCor Odyssey machine.
(§1) The following compounds were tested in the above assays at 5 μM: […]

[2] = test system: Mcl-1 expression in cells (NCI-H929, Z138, MM.1S, A-375); assay: Analysis of Mcl-1 expression by Western blotting; details: compound tested at 5 μM; Western blot
Experimental: (§2) Example B-2: Analysis of Md-1 Expression and PARP Cleavage
(§3) The ability of test compounds to decrease expression of the tumor promoting protein, Mcl-1, and to induce the inactivation/cleavage of the PARP protein is evaluated in cells (NCI-H929, Z138, MM.1S, A-375) by Western blotting. Cells are plated and treated as described in the HA-Ub-VS cell labeling assay (see above). A portion of the cleared lysate (15-50 μl) is run on an SDS-polyacrylamide gel to separate proteins and then transferred to nitrocellulose. After transfer to nitrocellulose, the proteins are detected by probing the blot with anti-Mcl-1 and anti-PARP antibodies followed by secondary antibodies coupled to IRdye 800 and IRdye 680 and visualization and quantitation using a LiCor Odyssey machine. Activity of the test compound is identified as a significant decrease in Mcl-1 expression relative to the vehicle treated cells and to the appearance of a cleaved fragment of PARP relative to the vehicle-treated cells.
as §1

[3] = test system: PARP cleavage in cells (NCI-H929, Z138, MM.1S, A-375); assay: Analysis of PARP cleavage by Western blotting; details: compound tested at 5 μM; Western blot
Experimental: as §2, §3, §1

T1 sequence (Q93008 whole entry): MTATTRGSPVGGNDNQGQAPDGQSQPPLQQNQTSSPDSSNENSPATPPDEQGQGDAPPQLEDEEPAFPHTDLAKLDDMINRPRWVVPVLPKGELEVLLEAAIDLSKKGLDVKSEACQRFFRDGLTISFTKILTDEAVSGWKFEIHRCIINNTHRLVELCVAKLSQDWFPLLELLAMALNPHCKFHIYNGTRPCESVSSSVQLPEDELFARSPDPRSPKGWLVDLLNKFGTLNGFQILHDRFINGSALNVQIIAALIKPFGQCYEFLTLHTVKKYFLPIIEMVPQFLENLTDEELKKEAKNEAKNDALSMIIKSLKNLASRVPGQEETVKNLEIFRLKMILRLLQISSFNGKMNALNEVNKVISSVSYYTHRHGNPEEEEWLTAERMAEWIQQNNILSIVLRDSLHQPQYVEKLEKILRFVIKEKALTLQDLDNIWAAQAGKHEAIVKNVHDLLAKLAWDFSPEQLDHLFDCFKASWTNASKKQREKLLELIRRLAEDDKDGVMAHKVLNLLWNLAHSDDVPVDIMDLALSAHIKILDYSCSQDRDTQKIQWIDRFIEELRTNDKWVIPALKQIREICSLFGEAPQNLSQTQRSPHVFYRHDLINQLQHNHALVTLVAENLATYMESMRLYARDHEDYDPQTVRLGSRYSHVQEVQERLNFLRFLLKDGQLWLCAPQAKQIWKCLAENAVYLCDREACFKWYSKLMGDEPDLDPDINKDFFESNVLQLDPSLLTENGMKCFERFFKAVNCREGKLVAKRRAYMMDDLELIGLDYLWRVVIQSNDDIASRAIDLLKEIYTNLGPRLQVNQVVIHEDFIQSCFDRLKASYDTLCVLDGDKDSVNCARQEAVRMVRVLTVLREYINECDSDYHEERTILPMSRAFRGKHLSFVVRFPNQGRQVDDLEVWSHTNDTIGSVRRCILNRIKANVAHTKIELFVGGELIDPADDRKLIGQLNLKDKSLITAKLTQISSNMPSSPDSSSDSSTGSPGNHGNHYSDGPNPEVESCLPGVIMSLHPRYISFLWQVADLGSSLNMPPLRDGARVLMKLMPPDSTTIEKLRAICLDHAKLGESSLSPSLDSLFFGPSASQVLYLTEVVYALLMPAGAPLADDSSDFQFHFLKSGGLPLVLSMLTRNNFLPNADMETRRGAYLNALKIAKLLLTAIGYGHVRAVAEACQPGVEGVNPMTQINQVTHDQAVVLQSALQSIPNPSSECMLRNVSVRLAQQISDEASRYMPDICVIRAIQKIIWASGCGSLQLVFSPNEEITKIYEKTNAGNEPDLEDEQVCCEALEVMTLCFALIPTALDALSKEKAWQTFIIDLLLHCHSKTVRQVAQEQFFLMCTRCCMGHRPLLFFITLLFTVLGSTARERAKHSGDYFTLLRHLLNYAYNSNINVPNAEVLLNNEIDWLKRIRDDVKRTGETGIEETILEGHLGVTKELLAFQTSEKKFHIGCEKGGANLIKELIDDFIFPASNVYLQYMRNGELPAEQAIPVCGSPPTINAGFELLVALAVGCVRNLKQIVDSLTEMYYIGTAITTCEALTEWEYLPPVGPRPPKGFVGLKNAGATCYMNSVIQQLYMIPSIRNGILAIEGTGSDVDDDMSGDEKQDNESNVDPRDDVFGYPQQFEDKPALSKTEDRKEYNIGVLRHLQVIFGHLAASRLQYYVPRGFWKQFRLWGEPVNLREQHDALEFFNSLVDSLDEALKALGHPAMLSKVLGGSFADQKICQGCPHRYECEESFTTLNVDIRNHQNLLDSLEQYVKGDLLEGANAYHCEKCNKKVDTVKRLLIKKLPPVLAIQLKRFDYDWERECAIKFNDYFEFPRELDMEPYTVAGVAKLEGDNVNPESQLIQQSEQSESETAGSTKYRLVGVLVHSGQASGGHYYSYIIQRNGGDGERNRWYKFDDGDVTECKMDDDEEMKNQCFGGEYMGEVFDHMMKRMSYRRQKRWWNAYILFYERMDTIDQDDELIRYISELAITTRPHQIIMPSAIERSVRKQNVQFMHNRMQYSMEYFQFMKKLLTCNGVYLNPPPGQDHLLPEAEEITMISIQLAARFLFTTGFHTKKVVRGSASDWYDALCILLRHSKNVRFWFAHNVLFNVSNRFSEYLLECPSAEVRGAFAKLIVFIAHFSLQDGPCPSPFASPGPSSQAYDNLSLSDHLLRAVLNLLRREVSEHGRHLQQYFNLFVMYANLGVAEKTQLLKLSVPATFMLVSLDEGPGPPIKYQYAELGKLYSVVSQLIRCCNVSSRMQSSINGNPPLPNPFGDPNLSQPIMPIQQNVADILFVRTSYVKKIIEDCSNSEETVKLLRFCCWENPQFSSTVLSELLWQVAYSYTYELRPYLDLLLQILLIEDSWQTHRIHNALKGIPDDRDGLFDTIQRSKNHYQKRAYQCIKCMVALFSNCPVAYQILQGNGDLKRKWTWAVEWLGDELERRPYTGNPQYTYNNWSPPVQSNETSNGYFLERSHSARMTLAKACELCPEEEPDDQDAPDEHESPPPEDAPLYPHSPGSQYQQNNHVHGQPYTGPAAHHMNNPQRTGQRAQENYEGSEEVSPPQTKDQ

| inhibition at 5 µM [1] [%] | SMILES | inhibition at 5 µM [2] [%] | PARP cleavage % Inhibition [3] |
| --- | --- | --- | --- |
| 50 to 75 | N#C/C(=C\c1ncccc1Br)C(=O)NC1(c2ccccc2)CCCC1 [Compound 46, (E)-3-(3-bromopyridin-2-yl)-2-cyano-N-(1-phenylcyclopentyl)acrylamide] | 50 to 75 | A (A is ≧75% inhibition) |
| < 25 | N#C/C(=C\c1cccc(N2CCCC2)n1)C(=O)NC1(c2ccccc2)CCCC1 [Compound 83, (E)-2-cyano-N-(1-phenylcyclopentyl)-3-(6-(pyrrolidin-1-yl)pyridin-2-yl) acrylamide] | < 25 | D (D is <25% inhibition) |
| 50 to 75 | COC(=O)/C=C/c1cccc(/C=C(\C#N)C(=O)NC2(c3ccccc3)CCCC2)n1 [Compound 42, (E)-methyl 3-(6-((E)-2-cyano-3-oxo-3-((1-phenylcyclopentyl)amino)prop-1-en-1-yl)pyridin-2-yl)acrylate] | ≥ 75 | A (A is ≧75% inhibition) |
| 50 to 75 | Cn1cc(-c2ccc(C3(NC(=O)/C(C#N)=C/c4ncc(Br)cc4Br)CCCC3)cc2)cn1 [Compound 77, (E)-2-cyano-3-(3,5-dibromopyridin-2-yl)-N-(1-(4-(1-methyl-1H-pyrazol-4-yl)phenyl)cyclopentyl)acrylamide] | 50 to 75 | B (B is 50% to 75% inhibition) |
| < 25 | N#C/C(=C\c1cccc(Br)n1)C(=O)NC1(c2ccc(-c3ccc(CC(=O)O)cc3)cc2)CCCC1 [Compound 90, (E)-2-(4′-(1-(3-(6-bromopyridin-2-yl)-2-cyanoacrylamido)cyclopentyl)-[1,1′-biphenyl]-4-yl)acetic acid] | 25 to 50 | D (D is <25% inhibition) |
| < 25 | N#C/C(=C\c1cccc(-c2cccc(C(=O)O)c2F)n1)C(=O)NC1(c2ccccc2)CCCC1 [Compound 89, (E)-3-(6-(2-cyano-3-oxo-3-((1-phenylcyclopentyl)amino)prop-1-en-1-yl)pyridin-2-yl)-2-fluorobenzoic acid] | < 25 | C (C is 25% to 50% inhibition) |
| < 25 | N#C/C(=C\c1ncc(Br)cc1Br)C(=O)NC1(c2ccc(-c3ccc(N4CCCCC4)nc3)cc2)CCCC1 [Compound 69, (E)-2-cyano-3-(3,5-dibromopyridin-2-yl)-N-(1-(4-(6-(piperidin-1-yl)pyridin-3-yl)phenyl)cyclopentyl)acrylamide] | < 25 | D (D is <25% inhibition) |
| 50 to 75 | N#C/C(=C\c1cccc(C2CC2)n1)C(=O)NC1(c2ccc(-c3cccnc3)cc2)CCCC1 [Compound 67, (E)-2-cyano-3-(6-cyclopropylpyridin-2-yl)-N-(1-(4-(pyridin-3-yl)phenyl)cyclopentyl)acrylamide] | ≥ 75 | A (A is ≧75% inhibition) |
| 50 to 75 | COc1ccc(COc2ccc(C3(NC(=O)/C(C#N)=C/c4cccc(Br)n4)CCCC3)cc2)cc1 [Compound 72, (E)-3-(6-bromopyridin-2-yl)-2-cyano-N-(1-(4-((4-methoxybenzyl)oxy)phenyl)cyclopentyl)acrylamide] | ≥ 75 | A (A is ≧75% inhibition) |

Second part, the compound before the results:

| SMILES | inhibition at 5 µM [1] [%] | inhibition at 5 µM [2] [%] | PARP cleavage % Inhibition [3] |
| --- | --- | --- | --- |
| COc1ccc(/C=C(\C#N)C(=O)NC2(c3ccccc3)CCCC2)cc1O [Compound 14, (E)-3-(3-Hydroxy-4-methoxyphenyl)-2-cyano-N-(1-phenylcyclopentyl)acrylamide] | < 25 | < 25 | D (D is <25% inhibition) |
| COc1ccc(C2(NC(=O)/C(C#N)=C/c3cccc(Br)n3)CCCC2)cc1 [Compound 16, (E)-3-(6-Bromopyridin-2-yl)-2-cyano-N-(1-(4-methoxyphenyl)cyclopentyl)acrylamide] | 50 to 75 | 50 to 75 | A (A is ≧75% inhibition) |
| N#C/C(=C\c1cccc(Br)n1)C(=O)NC1(c2ccnc(F)c2)CCCC1 [Compound 3-7, (E)-3-(6-bromopyridin-2-yl)-2-cyano-N-(1-(2-fluoropyridin-4-yl)cyclopentyl)acrylamide] | 25 to 50 | < 25 | B (B is 50% to 75% inhibition) |
| CCOC(=O)c1ccc(-c2cccc(/C=C(\C#N)C(=O)NC3(c4ccccc4)CCCC3)n2)cc1 [Compound 31, (E)-ethyl 4-(6-(2-cyano-3-oxo-3-((1-phenylcyclopentyl)amino)prop-1-en-1-yl)pyridin-2-yl)benzoate] | 25 to 50 | < 25 | B (B is 50% to 75% inhibition) |
| N#C/C(=C\c1ncc(Cl)cc1F)C(=O)NC1(c2ccccc2)CCCC1 [Compound 5, (E)-3-(3-Fluoro-5-chloropyridin-2-yl)-2-cyano-N-(1-phenylcyclopentyl)acrylamide] | ≥ 75 | ≥ 75 | A (A is ≧75% inhibition) |
| N#C/C(=C\c1nc(Cl)ccc1Br)C(=O)NC1(c2ccccc2)CCCC1 [Compound 10, (E)-3-(3-Bromo-6-chloropyridin-2-yl)-2-cyano-N-(1-phenylcyclopentyl)acrylamide] | 50 to 75 | ≥ 75 | B (B is 50% to 75% inhibition) |
| CC(C)(C)c1ccc(C2(NC(=O)/C(C#N)=C/c3ncc(Br)cc3Br)CCCC2)cc1 [Compound 27, (E)-N-(1-(4-(tert-butyl)phenyl)cyclopentyl)-2-cyano-3-(3,5-dibromopyridin-2-yl)acrylamide] | ≥ 75 | ≥ 75 | A (A is ≧75% inhibition) |
| Cc1cccc(C2(NC(=O)/C(C#N)=C/c3ncc(Br)cc3Br)CCCC2)c1 [Compound 26, (E)-2-cyano-3-(3,5-dibromopyridin-2-yl)-N-(1-(m-tolyl)cyclopentyl)acrylamide] | ≥ 75 | ≥ 75 | A (A is ≧75% inhibition) |
| N#C/C(=C\c1cccc(Br)n1)C(=O)NC1(c2ccccc2)CCCC1 [Compound 1, (E)-3-(6-Bromopyridin-2-yl)-2-cyano-N-(1-phenylcyclopentyl)acrylamide] | ≥ 75 | ≥ 75 | A (A is ≧75% inhibition) |
| N#C/C(=C\c1cccc(Br)n1)C(=O)NC1(c2ccccc2)CCC1 [Compound 3, (E)-3-(6-Bromopyridin-2-yl)-2-cyano-N-(1-phenylcyclobutyl)acrylamide] | < 25 | < 25 | B (B is 50% to 75% inhibition) |
| N#C/C(=C\c1ccc(Cl)c(F)c1)C(=O)NC1(c2ccccc2)CCCC1 [Compound 12, (E)-3-(4-Chloro-3-fluorophenyl)-2-cyano-N-(1-phenylcyclopentyl)acrylamide] | 25 to 50 | < 25 | C (C is 25% to 50% inhibition) |
| N#C/C(=C\c1ccc(O)cc1)C(=O)NC1(c2ccccc2)CCCC1 [Compound 13, (E)-3-(4-Hydroxyphenyl)-2-cyano-N-(1-phenylcyclopentyl)acrylamide] | < 25 | < 25 | D (D is <25% inhibition) |
| CCOC(=O)c1ccc(-c2ccc(C3(NC(=O)/C(C#N)=C/c4ncc(Br)cc4Br)CCCC3)cc2)cc1 [Compound 32, (E)-ethyl 4′-(1-(2-cyano-3-(3,5-dibromopyridin-2-yl)acrylamido)cyclopentyl)-[1,1′-biphenyl]-4-carboxylate] | < 25 | < 25 | D (D is <25% inhibition) |
| COC(=O)c1cncc(-c2cccc(/C=C(\C#N)C(=O)NC3(c4ccccc4)CCCC3)n2)c1 [Compound 33] | 50 to 75 | ≥ 75 | A (A is ≧75% inhibition) |
